From patent publication US8435978B2, “Substituted sulfonamide compounds” (Gruenenthal GmbH, priority 2006, dated 2013) come the findings set out here.

Molecules are shown by their SMILES. Structures can show the parent of a compound that is named as a salt.

Usually inhibition stands for the change of the read-out against control, counted positive when it falls.

In experiment [1] the target is T1, B1R receptor of the rat (Rattus norvegicus, UniProt P97583).
T1 construct: host or cells: CHO K1 cells (Chinese hamster ovary), stably transfected
T1 sequence (P97583 1-337): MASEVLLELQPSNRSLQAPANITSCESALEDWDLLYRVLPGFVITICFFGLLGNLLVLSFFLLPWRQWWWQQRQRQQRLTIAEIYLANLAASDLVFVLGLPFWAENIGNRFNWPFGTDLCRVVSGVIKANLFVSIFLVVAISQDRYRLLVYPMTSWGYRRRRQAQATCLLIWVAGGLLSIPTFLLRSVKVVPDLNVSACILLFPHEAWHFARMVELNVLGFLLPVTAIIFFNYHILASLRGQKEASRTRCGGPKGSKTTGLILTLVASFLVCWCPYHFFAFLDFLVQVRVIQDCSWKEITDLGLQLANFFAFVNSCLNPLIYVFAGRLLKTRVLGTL
As to the kind of experiment: Functional study on the bradykinin receptor 1 (B1R), FLIPR Ca2+ assay, rB1R cells. Format: cell-based. As to conditions: agonist Des-Arg9-bradykinin 100 nM, % inhibition compared with the maximum achievable inhibition; for inhibition at 10 µM: CHO-K1, test substance 10 μM, read-out: B1R Antagonism, rat [10 μM] % Inhibition. In outline:
(§1)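 Cells were dye-loaded 60 min at 37 °C, equilibrated 20 min at room temperature, then given 10 μM compound. Ten minutes later the species-matched agonist was added (0.5 nM Lys-Des-Arg9-bradykinin, human; 100 nM Des-Arg9-bradykinin, rat) and Ca2+ influx suppression expressed as % of maximum inhibition.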

In experiment [2] the target is T2, human B1R receptor (Homo sapiens, UniProt P46663).
T2 construct: host or cells: CHO K1 cells (Chinese hamster ovary), stably transfected
T2 sequence (P46663 1-353): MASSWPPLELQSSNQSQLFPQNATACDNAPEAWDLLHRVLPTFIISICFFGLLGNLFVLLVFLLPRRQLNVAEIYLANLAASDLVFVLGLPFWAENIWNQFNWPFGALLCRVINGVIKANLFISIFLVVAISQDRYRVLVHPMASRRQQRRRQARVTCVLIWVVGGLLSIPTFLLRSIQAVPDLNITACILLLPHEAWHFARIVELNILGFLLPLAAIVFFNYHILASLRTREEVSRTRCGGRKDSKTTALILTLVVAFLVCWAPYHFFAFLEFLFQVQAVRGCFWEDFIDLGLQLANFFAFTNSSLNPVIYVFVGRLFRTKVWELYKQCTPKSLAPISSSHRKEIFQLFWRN
As to the kind of experiment: Functional study on the bradykinin receptor 1 (B1R), FLIPR Ca2+ assay, hB1R cells. To be noted: agonist Lys-Des-Arg9-bradykinin 0.5 nM, % inhibition compared with the maximum achievable inhibition; for inhibition at 10 µM: CHO-K1, test substance 10 μM, read-out: B1R Antagonism, human [10 μM] % Inhibition. Format: cell-based. In outline:
as §1

For `O=C(COCC1Cc2ccccc2CN1S(=O)(=O)c1ccc(Cl)cc1Cl)N1CCCC1CN1CCCCC1` (centres unmarked) [Example 51, 2-[2-(2,4-dichloro-phenylsulfonyl)-1,2,3,4-tetrahydro-isoquinolin-3-ylmethoxy]-1-(2-piperidin-1-ylmethyl-pyrrolidin-1-yl)-ethanone], the inhibition at 10 µM in experiment [1] came to 87.9%; in experiment [2], 65.1%.

Take `COc1cc(C)c(S(=O)(=O)N2CCCCC2COCC(=O)Nc2ccc(N3CCOCC3)cc2)c(C)c1` (centres unmarked) [Example 438, 2-((1-(4-methoxy-2,6-dimethylphenylsulfonyl)piperidin-2-yl)methoxy)-N-(4-morpholinophenyl)acetamide]: the inhibition at 10 µM in experiment [1] is 100%; in experiment [2] it was 22.1%.

Consider `CN1CCC(N2CCN(C(=O)COCC3CCCCN3S(=O)(=O)c3c(Cl)cccc3Cl)CC2)CC1` (centres unmarked) [Example 141, 2-((1-(2,6-dichlorophenylsulfonyl)piperidin-2-yl)methoxy)-1-(4-(1-methylpiperidin-4-yl)piperazin-1-yl)ethanone dihydrochloride], for which the inhibition at 10 µM in experiment [1] and in experiment [2] was 101% each time.

On to `COc1cc(C)c(S(=O)(=O)N2CCCC2COCC(=O)NC2CCN(Cc3ccccc3)CC2)c(C)c1` (centres unmarked) [Example 477, N-(1-benzylpiperidin-4-yl)-2-((1-(4-methoxy-2,6-dimethylphenylsulfonyl)pyrrolidin-2-yl)methoxy)acetamide], for which the inhibition at 10 µM stood at 98.8% in experiment [1] and 94.5% in experiment [2].

For `COc1cc(C)c(S(=O)(=O)N2CCCC2COCC(=O)NCc2ccc(N(C)C)cc2)c(C)c1` (centres unmarked) [Example 576, N-(4-(dimethylamino)benzyl)-2-((1-(4-methoxy-2,6-dimethylphenylsulfonyl)pyrrolidin-2-yl)methoxy)acetamide], the inhibition at 10 µM in experiment [1] turned out to be 107%; in experiment [2] it was 1.85%.

As to `Cc1nccn1-c1ccc(NC(=O)COCC2CCCCN2S(=O)(=O)c2c(Cl)cccc2Cl)cc1` (centres unmarked) [Example 527, 2-((1-(2,6-dichlorophenylsulfonyl)piperidin-2-yl)methoxy)-N-(4-(2-methyl-1H-imidazol-1-yl)phenyl)acetamide], the values for the inhibition at 10 µM in experiment [1] and in experiment [2] were 97.3% and 97.2%, respectively.

Take `COc1cc(C)c(S(=O)(=O)N2CCCCC2COCC(=O)N2CCN(c3ccccn3)CC2)c(C)c1` (centres unmarked) [Example 369, 2-((1-(4-methoxy-2,6-dimethylphenylsulfonyl)piperidin-2-yl)methoxy)-1-(4-(pyridin-2-yl)piperazin-1-yl)ethanone]: the inhibition at 10 µM in experiment [1] worked out at 101%; in experiment [2], 82.3%.

`COc1cc(C)c(S(=O)(=O)N2CCCC2COCC(=O)N(Cc2ccccc2)c2cccc(C)n2)c(C)c1` (centres unmarked) [Example 464, N-benzyl-2-((1-(4-methoxy-2,6-dimethylphenylsulfonyl)pyrrolidin-2-yl)methoxy)-N-(6-methylpyridin-2-yl)acetamide]: the inhibition at 10 µM was determined as 102% in experiment [1] and 56.6% in experiment [2].

With `COc1cccc(N2CCN(C(=O)COCC3CCCN3S(=O)(=O)c3c(Cl)cccc3Cl)CC2)c1` (centres unmarked) [Example 324, 2-((1-(2,6-dichlorophenylsulfonyl)pyrrolidin-2-yl)methoxy)-1-(4-(3-methoxyphenyl)piperazin-1-yl)ethanone], the results for the inhibition at 10 µM in experiment [1] and in experiment [2] were 98.4% and 84%, respectively.

For the molecule `COc1cc(C)c(S(=O)(=O)N2CCCC2COCC(=O)N(C)C(CN2CCCC2)c2ccccc2)c(C)c1` (centres unmarked) [Example 450, 2-((1-(4-methoxy-2,6-dimethylphenylsulfonyl)pyrrolidin-2-yl)methoxy)-N-methyl-N-(1-phenyl-2-(pyrrolidin-1-yl)ethyl)acetamide], the inhibition at 10 µM in experiment [1] is 99.7%; in experiment [2], 87.4%.

As for `CN1CCN(C2CCN(C(=O)COCC3CCCN3S(=O)(=O)c3c(Cl)cccc3Cl)CC2)CC1` (centres unmarked) [Example 285, 2-((1-(2,6-dichlorophenylsulfonyl)pyrrolidin-2-yl)methoxy)-1-(4-(4-methylpiperazin-1-yl)piperidin-1-yl)ethanone], the inhibition at 10 µM in experiment [1] came to 91%; in experiment [2], 104%.

With `COc1cc(C)c(S(=O)(=O)N2CCCCC2COCC(=O)NCCc2c[nH]c3ccccc23)c(C)c1` (centres unmarked) [Example 243, N-(2-(1H-indol-3-yl)ethyl)-2-((1-(4-methoxy-2,6-dimethylphenylsulfonyl)piperidin-2-yl)methoxy)acetamide], the results for the inhibition at 10 µM in experiment [1] and in experiment [2] were 80.6% and 24.8%, respectively.

For `COc1cc(C)c(S(=O)(=O)N2CCCC2COCC(=O)N2CCN(C3CCN(C)CC3)CC2)c(C)c1` (centres unmarked) [Example 192, 2-((1-(4-methoxy-2,6-dimethylphenylsulfonyl)pyrrolidin-2-yl)methoxy)-1-(4-(1-methylpiperidin-4-yl)piperazin-1-yl)ethanone], the inhibition at 10 µM in experiment [1] amounted to 100%; in experiment [2], 106%.

Take `O=C(COCC1CCCN1S(=O)(=O)c1ccc(Cl)c(Cl)c1)N1CCN(CCN2CCCCC2)CC1` (centres unmarked) [Example 72, 2-((1-(3,4-dichlorophenylsulfonyl)pyrrolidin-2-yl)methoxy)-1-(4-(2-(piperidin-1-yl)-ethyl)piperazin-1-yl)ethanone]: the inhibition at 10 µM in experiment [1] worked out at 13.2%; in experiment [2] it was 52.6%.

Turning to `COc1cc(C)c(S(=O)(=O)N2CCCCC2COCC(=O)Nc2cc(-c3cccs3)n[nH]2)c(C)c1` (centres unmarked) [Example 539, 2-((1-(4-methoxy-2,6-dimethylphenylsulfonyl)piperidin-2-yl)methoxy)-N-(3-(thiophen-2-yl)-1H-pyrazol-5-yl)acetamide], the inhibition at 10 µM in experiment [1] was 107%; in experiment [2], 38.8%.

Take `COc1cc(C)c(S(=O)(=O)N2CCCCC2COCC(=O)NCc2ccccc2N2CCOCC2)c(C)c1` (centres unmarked) [Example 435, 2-((1-(4-methoxy-2,6-dimethylphenylsulfonyl)piperidin-2-yl)methoxy)-N-(2-morpholinobenzyl)acetamide]: the inhibition at 10 µM was found to be 99.6% in experiment [1] and 6.23% in experiment [2].

As for `COc1ccc(N2CCN(C(=O)COCC3CCCN3S(=O)(=O)c3c(Cl)cccc3Cl)CC2)cc1` (centres unmarked) [Example 325, 2-((1-(2,6-dichlorophenylsulfonyl)pyrrolidin-2-yl)methoxy)-1-(4-(4-methoxyphenyl)piperazin-1-yl)ethanone], the inhibition at 10 µM is 101% in experiment [1] and 102% in experiment [2].

Consider `COc1cc(C)c(S(=O)(=O)N2Cc3ccccc3CC2COCC(=O)N2CCN(C3CCN(C)CC3)CC2)c(C)c1C` (centres unmarked) [Example 562, 2-((2-(4-methoxy-2,3,6-trimethylphenylsulfonyl)-1,2,3,4-tetrahydroisoquinolin-3-yl)methoxy)-1-(4-(1-methylpiperidin-4-yl)piperazin-1-yl)ethanone], for which the figures for the inhibition at 10 µM in experiment [1] and in experiment [2] were 100% and 102%, respectively.

Regarding `O=C(COCC1CCCN1S(=O)(=O)c1c(Cl)cc(Cl)cc1Cl)NCC1CCCN(Cc2ccccc2)C1` (centres unmarked) [Example 327, N-((1-benzylpiperidin-3-yl)methyl)-2-((1-(2,4,6-trichlorophenylsulfonyl)pyrrolidin-2-yl)methoxy)acetamide], the inhibition at 10 µM turned out to be 101% in experiment [1] and 104% in experiment [2].

`COc1ccc(S(=O)(=O)N2Cc3ccccc3CC2COCC(=O)N2CCC(CCN3CCCCC3)CC2)cc1` (centres unmarked) [Example 69]: the “B1R Antagonism, rat [10 μM] % Inhibition” value in experiment [1] (test substance 10 μM, rB1R CHO K1 cells) came to 82.89%. Moreover, the “B1R Antagonism, human [10 μM] % Inhibition” value in experiment [2] (test substance 10 μM, hB1R CHO K1 cells) worked out at 53.64%.

Consider `CN1CCN(Cc2ccc(CNC(=O)COCC3CCCCN3S(=O)(=O)c3c(Cl)cc(Cl)cc3Cl)cc2)CC1` (centres unmarked) [Example 15, N-[4-(4-methyl-piperazin-1-ylmethyl)-benzyl]-2-[1-(2,4,6-trichloro-phenylsulfonyl)-piperidin-2-ylmethoxy]-acetamide], for which the inhibition at 10 µM in experiment [1] came to 92.5%; in experiment [2] it was 96%.

On to `CN1CCC(N2CCN(C(=O)COCC3CCCCN3S(=O)(=O)c3ccc(Cl)c4nonc34)CC2)CC1` (centres unmarked) [Example 154, 2-((1-(7-chlorobenzo[c][1,2,5]oxadiazol-4-ylsulfonyl)piperidin-2-yl)methoxy)-1-(4-(1-methylpiperidin-4-yl)piperazin-1-yl)ethanone], for which the inhibition at 10 µM in experiment [1] came out at 84.4%; in experiment [2], 83.2%.
